Experimental data from ChEMBL document CHEMBL2311352, “Discovery of 4-phenyl-2-phenylaminopyridine based TNIK inhibitors” (Bioorg Med Chem Lett, 2013).
pIC50: −log10 of the molar value.

How the values were obtained:
[1] = target: Muscle, skeletal receptor tyrosine-protein kinase (Homo sapiens) (UniProt O15146); experiment: Inhibition of MUSK (unknown origin) at 1 uM
[2] = target: Dual specificity mitogen-activated protein kinase kinase 2 (Homo sapiens) (UniProt P36507); experiment: Inhibition of MEK2 (unknown origin) at 1 uM
[3] = target: Tyrosine-protein kinase receptor UFO (Homo sapiens) (UniProt P30530); experiment: Inhibition of AXL (unknown origin) at 1 uM
[4] = target: Serine/threonine-protein kinase PAK 4 (Homo sapiens) (UniProt O96013); experiment: Inhibition of PAK4 (unknown origin) at 1 uM
[5] = target: Vascular endothelial growth factor receptor 1 (Homo sapiens) (UniProt P17948); experiment: Inhibition of VEGFR1 (unknown origin) at 1 uM
[6] = target: Tyrosine-protein kinase JAK2 (Homo sapiens) (UniProt O60674); experiment: Inhibition of JAK2 (unknown origin) at 1 uM
[7] = target: Tyrosine-protein kinase ABL2 (Homo sapiens) (UniProt P42684); experiment: Inhibition of ABL2 (unknown origin) at 1 uM
[8] = Apparent permeability across basolateral to apical side in human Caco2 cells; type: ADME, cell-based; conditions: Caco-2
[9] = target: T1, TRAF2 and NCK-interacting protein kinase (Homo sapiens, UniProt Q9UKE5); experiment: Ratio of IC50 for TNIK-mediated TCF4/[…] transcription in human HCT116 cells to IC50 for TNIK (unknown origin); type: cell-based; conditions: HCT-116
Target sequence in this assay (Q9UKE5 whole entry, looked up): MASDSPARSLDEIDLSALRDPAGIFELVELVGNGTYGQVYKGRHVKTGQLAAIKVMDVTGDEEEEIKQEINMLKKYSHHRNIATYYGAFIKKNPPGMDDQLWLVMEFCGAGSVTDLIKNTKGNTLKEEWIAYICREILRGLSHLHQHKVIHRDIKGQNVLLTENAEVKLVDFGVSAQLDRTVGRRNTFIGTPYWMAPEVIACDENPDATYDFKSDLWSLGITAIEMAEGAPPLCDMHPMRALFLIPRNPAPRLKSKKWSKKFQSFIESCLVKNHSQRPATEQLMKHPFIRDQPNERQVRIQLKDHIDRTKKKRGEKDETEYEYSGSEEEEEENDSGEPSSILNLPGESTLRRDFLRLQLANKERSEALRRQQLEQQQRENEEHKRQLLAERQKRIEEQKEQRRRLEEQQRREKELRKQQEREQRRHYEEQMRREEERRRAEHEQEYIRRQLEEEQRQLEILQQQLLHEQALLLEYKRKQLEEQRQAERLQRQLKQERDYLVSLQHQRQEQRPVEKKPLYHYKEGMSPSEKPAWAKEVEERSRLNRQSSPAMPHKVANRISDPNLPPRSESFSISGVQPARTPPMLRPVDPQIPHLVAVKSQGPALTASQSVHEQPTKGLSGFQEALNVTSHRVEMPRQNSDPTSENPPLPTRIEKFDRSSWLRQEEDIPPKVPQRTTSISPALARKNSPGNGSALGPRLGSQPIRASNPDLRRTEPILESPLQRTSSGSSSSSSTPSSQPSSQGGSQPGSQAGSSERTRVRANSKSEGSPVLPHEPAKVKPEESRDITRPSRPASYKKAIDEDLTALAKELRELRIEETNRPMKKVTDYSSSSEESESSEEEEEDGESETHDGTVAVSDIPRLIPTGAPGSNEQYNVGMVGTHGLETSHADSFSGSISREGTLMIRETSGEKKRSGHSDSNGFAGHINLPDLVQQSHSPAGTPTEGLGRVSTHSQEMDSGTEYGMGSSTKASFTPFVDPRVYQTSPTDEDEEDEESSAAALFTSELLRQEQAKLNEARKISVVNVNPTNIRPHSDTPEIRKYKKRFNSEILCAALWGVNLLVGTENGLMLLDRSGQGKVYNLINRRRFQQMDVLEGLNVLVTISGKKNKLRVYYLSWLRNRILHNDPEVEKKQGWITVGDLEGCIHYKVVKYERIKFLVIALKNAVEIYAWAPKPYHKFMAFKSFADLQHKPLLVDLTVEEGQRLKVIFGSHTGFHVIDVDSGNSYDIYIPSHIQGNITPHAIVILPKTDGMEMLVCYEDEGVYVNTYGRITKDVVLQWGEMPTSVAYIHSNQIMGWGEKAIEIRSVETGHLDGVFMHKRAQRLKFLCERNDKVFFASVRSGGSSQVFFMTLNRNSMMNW

[10] = target: Cyclin-dependent kinase 2/cyclin A (Homo sapiens) (UniProt P24941+P20248+P78396); experiment: Inhibition of CDK2/cyclin A (unknown origin) at 1 uM; type: protein-complex assay
[11] = target: Tyrosine-protein kinase HCK (Homo sapiens) (UniProt P08631); experiment: Inhibition of HCK (unknown origin) at 1 uM
[12] = target: Casein kinase II subunit alpha (Homo sapiens) (UniProt P68400); experiment: Inhibition of CK2alpha (unknown origin) at 1 uM
[13] = target: Tyrosine-protein kinase SYK (Homo sapiens) (UniProt P43405); experiment: Inhibition of SYK (unknown origin) at 1 uM
[14] = target: Tyrosine-protein kinase Fer (Homo sapiens) (UniProt P16591); experiment: Inhibition of FER (unknown origin) at 1 uM
[15] = target: Tyrosine-protein kinase Lyn (Homo sapiens) (UniProt P07948); experiment: Inhibition of LYN (unknown origin) at 1 uM
[16] = target: Tyrosine-protein kinase JAK3 (Homo sapiens) (UniProt P52333); experiment: Inhibition of JAK3 (unknown origin) at 1 uM
[17] = target: Protein kinase C theta type (Homo sapiens) (UniProt Q04759); experiment: Inhibition of PKCtheta (unknown origin) at 1 uM
[18] = target: Homeodomain-interacting protein kinase 1 (Homo sapiens) (UniProt Q86Z02); experiment: Inhibition of HIPK1 (unknown origin) at 1 uM
[19] = target: Homeodomain-interacting protein kinase 4 (Homo sapiens) (UniProt Q8NE63); experiment: Inhibition of HIPK4 (unknown origin) at 1 uM
[20] = target: Protein kinase C delta type (Homo sapiens) (UniProt Q05655); experiment: Inhibition of PKCdelta (unknown origin) at 1 uM
[21] = target: Serine/threonine-protein kinase Chk1 (Homo sapiens) (UniProt O14757); experiment: Inhibition of CHK1 (unknown origin) at 1 uM
[22] = target: Ephrin type-A receptor 1 (Homo sapiens) (UniProt P21709); experiment: Inhibition of EPHA1 (unknown origin) at 1 uM
[23] = target: Proto-oncogene tyrosine-protein kinase Src (Homo sapiens) (UniProt P12931); experiment: Inhibition of c-SRC (unknown origin) at 1 uM
[24] = target: Protein-tyrosine kinase 6 (Homo sapiens) (UniProt Q13882); experiment: Inhibition of BRK (unknown origin) at 1 uM
[25] = target: Aurora kinase A (Homo sapiens) (UniProt O14965); experiment: Inhibition of aurora A (unknown origin) at 1 uM
[26] = target: Tyrosine-protein kinase ABL1 (Homo sapiens) (UniProt P00519); experiment: Inhibition of ABL1 (unknown origin) at 1 uM
[27] = target: BDNF/NT-3 growth factors receptor (Homo sapiens) (UniProt Q16620); experiment: Inhibition of TRKB (unknown origin) at 1 uM
[28] = target: Receptor-type tyrosine-protein kinase FLT3 (Homo sapiens) (UniProt P36888); experiment: Inhibition of FLT3 (unknown origin) at 1 uM
[29] = target: Death-associated protein kinase 1 (Homo sapiens) (UniProt P53355); experiment: Inhibition of DAPK1 (unknown origin) at 1 uM
[30] = target: Fibroblast growth factor receptor 1 (Homo sapiens) (UniProt P11362); experiment: Inhibition of FGFR1 (unknown origin) at 1 uM
[31] = target: Platelet-derived growth factor receptor alpha (Homo sapiens) (UniProt P16234); experiment: Inhibition of PDGFRalpha (unknown origin) at 1 uM
[32] = target: Tyrosine-protein kinase Fyn (Homo sapiens) (UniProt P06241); experiment: Inhibition of FYN (unknown origin) at 1 uM
[33] = target: Focal adhesion kinase 1 (Homo sapiens) (UniProt Q05397); experiment: Inhibition of FAK (unknown origin) at 1 uM
[34] = target: Cyclin-dependent kinase 1/cyclin B1 (Homo sapiens) (UniProt P06493+P14635); experiment: Inhibition of CDK1/cyclin B (unknown origin) at 1 uM; type: protein-complex assay
[35] = target: T1, TRAF2 and NCK-interacting protein kinase; experiment: Inhibition of TNIK (unknown origin) by ADP glo luminescent assay
Target sequence in this assay (Q9UKE5 whole entry): as the sequence (Q9UKE5 whole entry, looked up) above

[36] = target: Tyrosine-protein kinase JAK1 (Homo sapiens) (UniProt P23458); experiment: Inhibition of JAK1 (unknown origin) at 1 uM
[37] = target: Vascular endothelial growth factor receptor 3 (Homo sapiens) (UniProt P35916); experiment: Inhibition of VEGFR3 (unknown origin) at 1 uM
[38] = target: Protein kinase C epsilon (Homo sapiens) (UniProt Q02156); experiment: Inhibition of PKCepsilon (unknown origin) at 1 uM
[39] = target: Tyrosine-protein kinase Lck (Homo sapiens) (UniProt P06239); experiment: Inhibition of LCK (unknown origin) at 1 uM
[40] = target: Serine/threonine-protein kinase Chk2 (Homo sapiens) (UniProt O96017); experiment: Inhibition of CHK2 (unknown origin) at 1 uM
[41] = target: Cyclin-dependent kinase 4/cyclin D1 (Homo sapiens) (UniProt P11802+P24385); experiment: Inhibition of CDK4/cyclin D1 (unknown origin) at 1 uM; type: protein-complex assay
[42] = target: Homeodomain-interacting protein kinase 3 (Homo sapiens) (UniProt Q9H422); experiment: Inhibition of HIPK3 (unknown origin) at 1 uM
[43] = target: Dual specificity mitogen-activated protein kinase kinase 1 (Homo sapiens) (UniProt Q02750); experiment: Inhibition of MEK1 (unknown origin) at 1 uM
[44] = target: Platelet-derived growth factor receptor beta (Homo sapiens) (UniProt P09619); experiment: Inhibition of PDGFRbeta (unknown origin) at 1 uM

Homeodomain-interacting protein kinase 4 (Homo sapiens), sequence (Q8NE63 whole entry): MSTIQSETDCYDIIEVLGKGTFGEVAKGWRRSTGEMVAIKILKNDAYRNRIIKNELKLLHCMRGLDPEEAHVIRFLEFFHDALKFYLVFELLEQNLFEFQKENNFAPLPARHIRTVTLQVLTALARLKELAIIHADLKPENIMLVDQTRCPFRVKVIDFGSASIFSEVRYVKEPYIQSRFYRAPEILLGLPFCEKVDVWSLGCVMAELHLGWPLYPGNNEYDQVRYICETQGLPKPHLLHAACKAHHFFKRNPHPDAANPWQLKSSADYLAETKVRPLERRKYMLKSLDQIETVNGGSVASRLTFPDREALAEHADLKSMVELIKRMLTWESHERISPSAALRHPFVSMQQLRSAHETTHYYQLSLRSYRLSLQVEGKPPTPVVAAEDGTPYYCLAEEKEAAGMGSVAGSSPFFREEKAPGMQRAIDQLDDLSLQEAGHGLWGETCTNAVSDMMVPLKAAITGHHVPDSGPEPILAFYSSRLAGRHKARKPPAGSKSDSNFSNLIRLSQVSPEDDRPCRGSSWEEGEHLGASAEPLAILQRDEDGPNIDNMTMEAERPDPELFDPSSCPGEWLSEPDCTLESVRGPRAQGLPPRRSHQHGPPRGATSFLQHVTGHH
Tyrosine-protein kinase JAK3 (Homo sapiens), sequence (P52333 whole entry): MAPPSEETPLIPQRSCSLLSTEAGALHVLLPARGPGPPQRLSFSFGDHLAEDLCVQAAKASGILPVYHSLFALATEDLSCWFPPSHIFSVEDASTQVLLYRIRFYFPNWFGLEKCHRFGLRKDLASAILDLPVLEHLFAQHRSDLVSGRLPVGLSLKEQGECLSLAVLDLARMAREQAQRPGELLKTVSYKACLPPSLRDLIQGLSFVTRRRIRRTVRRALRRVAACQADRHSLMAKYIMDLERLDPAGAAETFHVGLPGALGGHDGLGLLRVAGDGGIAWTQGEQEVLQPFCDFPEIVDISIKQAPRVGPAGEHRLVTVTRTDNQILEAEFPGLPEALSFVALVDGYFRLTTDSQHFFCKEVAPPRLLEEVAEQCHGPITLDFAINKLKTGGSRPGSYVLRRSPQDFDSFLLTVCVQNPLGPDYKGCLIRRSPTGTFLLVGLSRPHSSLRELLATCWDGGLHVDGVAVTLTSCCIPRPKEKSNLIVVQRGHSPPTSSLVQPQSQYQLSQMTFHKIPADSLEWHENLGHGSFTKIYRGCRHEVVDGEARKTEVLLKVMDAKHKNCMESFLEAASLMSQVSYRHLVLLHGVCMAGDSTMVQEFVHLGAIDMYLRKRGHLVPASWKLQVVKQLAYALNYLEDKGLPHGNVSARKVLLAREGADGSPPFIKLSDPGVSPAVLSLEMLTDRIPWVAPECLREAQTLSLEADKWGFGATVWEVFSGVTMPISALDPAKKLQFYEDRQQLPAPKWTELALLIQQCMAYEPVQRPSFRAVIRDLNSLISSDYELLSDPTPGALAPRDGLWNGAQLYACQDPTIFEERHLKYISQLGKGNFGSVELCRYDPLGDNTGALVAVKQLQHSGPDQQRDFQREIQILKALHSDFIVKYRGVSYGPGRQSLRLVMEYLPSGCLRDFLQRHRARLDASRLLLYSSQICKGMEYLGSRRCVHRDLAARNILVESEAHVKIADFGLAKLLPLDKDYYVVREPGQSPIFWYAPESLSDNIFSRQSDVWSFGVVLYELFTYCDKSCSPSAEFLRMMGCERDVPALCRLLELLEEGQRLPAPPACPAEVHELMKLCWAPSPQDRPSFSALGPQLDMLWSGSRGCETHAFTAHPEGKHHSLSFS
Tyrosine-protein kinase ABL1 (Homo sapiens), sequence (P00519 whole entry): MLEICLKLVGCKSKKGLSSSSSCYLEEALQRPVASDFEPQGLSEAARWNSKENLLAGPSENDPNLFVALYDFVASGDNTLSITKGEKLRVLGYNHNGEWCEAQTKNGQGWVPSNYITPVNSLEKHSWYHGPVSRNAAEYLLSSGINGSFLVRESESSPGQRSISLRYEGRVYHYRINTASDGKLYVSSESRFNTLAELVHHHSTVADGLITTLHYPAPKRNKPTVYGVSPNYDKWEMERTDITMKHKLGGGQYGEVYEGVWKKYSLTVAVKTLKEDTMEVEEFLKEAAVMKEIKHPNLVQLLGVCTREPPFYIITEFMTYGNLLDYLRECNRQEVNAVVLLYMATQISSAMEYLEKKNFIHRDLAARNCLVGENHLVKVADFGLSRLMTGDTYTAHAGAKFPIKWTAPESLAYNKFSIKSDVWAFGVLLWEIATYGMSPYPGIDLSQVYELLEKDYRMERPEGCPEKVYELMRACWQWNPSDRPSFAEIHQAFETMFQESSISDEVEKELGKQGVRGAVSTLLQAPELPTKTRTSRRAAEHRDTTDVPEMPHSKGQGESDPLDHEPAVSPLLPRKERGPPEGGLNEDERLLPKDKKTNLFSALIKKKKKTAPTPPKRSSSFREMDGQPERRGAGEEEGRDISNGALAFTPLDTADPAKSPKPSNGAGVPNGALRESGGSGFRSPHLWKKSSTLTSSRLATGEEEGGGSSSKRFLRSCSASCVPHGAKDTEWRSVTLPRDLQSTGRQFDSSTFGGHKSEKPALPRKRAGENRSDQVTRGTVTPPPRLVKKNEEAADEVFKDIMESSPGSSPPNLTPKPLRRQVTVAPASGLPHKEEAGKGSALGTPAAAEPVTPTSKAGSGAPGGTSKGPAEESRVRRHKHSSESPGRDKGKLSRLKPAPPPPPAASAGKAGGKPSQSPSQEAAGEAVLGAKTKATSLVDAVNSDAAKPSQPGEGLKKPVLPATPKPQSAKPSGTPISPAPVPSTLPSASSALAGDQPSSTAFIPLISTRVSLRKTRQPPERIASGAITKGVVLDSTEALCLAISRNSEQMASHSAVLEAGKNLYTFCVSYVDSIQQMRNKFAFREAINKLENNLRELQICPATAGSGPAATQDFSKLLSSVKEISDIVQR
Fibroblast growth factor receptor 1 (Homo sapiens), sequence (P11362 22-822 limits assumed): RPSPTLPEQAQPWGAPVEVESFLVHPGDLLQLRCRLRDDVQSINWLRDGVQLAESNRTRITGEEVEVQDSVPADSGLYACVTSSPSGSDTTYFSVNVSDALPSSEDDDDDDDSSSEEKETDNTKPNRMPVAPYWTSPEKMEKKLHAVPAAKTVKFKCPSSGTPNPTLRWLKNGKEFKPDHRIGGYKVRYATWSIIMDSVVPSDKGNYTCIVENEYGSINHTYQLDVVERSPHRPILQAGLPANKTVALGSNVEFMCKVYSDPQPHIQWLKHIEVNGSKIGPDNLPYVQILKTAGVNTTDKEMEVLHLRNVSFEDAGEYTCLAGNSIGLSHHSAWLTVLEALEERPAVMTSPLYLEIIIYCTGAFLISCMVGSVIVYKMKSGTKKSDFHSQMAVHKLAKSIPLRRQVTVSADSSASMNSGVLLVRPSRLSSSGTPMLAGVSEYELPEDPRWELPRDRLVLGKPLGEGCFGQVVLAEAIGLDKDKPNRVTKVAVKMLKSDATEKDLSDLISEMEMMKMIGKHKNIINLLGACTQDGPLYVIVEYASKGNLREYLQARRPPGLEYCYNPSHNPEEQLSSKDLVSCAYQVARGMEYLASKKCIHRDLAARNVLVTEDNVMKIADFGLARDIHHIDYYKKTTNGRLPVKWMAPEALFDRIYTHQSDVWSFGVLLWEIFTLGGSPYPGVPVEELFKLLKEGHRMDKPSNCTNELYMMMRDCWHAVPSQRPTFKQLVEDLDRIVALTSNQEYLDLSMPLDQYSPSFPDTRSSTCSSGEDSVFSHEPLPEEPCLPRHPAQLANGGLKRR

COc1cc(Nc2ncc(Cl)c(-c3cccc(CC#N)c3)n2)ccc1N1CCN(C)CC1 gave an inhibition [1] of over 80%, an inhibition [2] of over 80% and an inhibition [3] of over 80%. For the same compound, the inhibition [4] was 50%, the inhibition [5] was over 95% and the inhibition [6] was over 95%. It also gave an inhibition [7] of over 80%, a Papp B→A [8] of 7.7 ×10⁻⁶ cm/s and a Ratio IC50 [9] of 5.4. For the same compound, the inhibition [10] was over 50%, the inhibition [11] was 50% and the inhibition [12] was over 80%. The inhibition [13] was over 80%, the inhibition [14] was over 80% and the inhibition [15] was over 80%. It also gave an inhibition [16] of over 95%, an inhibition [17] of 50% and an inhibition [18] of 50%. For the same compound, the inhibition [19] was over 80%, the inhibition [20] was 50% and the inhibition [21] was over 80%. It also gave an inhibition [22] of 50%, an inhibition [23] of over 80% and an inhibition [24] of over 80%. For the same compound, the inhibition [25] was over 95%, the inhibition [26] was over 80% and the inhibition [27] was over 80%. The inhibition [28] was over 95%, the inhibition [29] was over 80% and the inhibition [30] was over 95%. It also gave an inhibition [31] of over 80%, an inhibition [32] of 50% and an inhibition [33] of 50%. It also gave an inhibition [34] of over 50%, a pIC50 [35] of 7.19 and an inhibition [36] of over 80%. The inhibition [37] was over 95%, the inhibition [38] was 50% and the inhibition [39] was over 80%. The inhibition [40] was over 80%, the inhibition [41] was over 80% and the inhibition [42] was over 80%. It also gave an inhibition [43] of over 80% and an inhibition [44] of over 80%.
